Assays:
[1] = tested on: IL-8; assay: IL-8 Secretion from primary HBEs (ELISA); assay type: cell-based, human; details: FIG. 6B; 10 mM, apical surface of HBE cells, 24 hours
Protocol: Reducing agents were made up in 50 mM Tris-HCl buffered to pH 7.5. Each compound solution (15 μL of 10 mM compound) was added to the apical surface of primary HBEs.
IL-8 secretion was measured from the basolateral HBE media 24 hours post-dose using a ThermoScientific human IL-8 ELISA kit. Samples were diluted 1:50 and then 50 μL of each dilution was added to the ELISA plate. The samples were completed in duplicate following standard reaction conditions as outlined in the kit manual. Absorbance was measured at 450 nm. A standard curve, generated from standards with known amounts of human IL-8, was used to calculate IL-8 amounts in the unknown samples. Supernatant from mucopurlent matters (SMM) purified from cystic fibrosis sputum was used as a positive control for IL-8 secretion.

[2] = DTNB assay: rate of S-S bond reduction; assay type: biochemical; details: for DTNB reduction rate: 22.5 μM reducing agent, 45 μM DTNB, 50 mM Tris-HCl
Excerpt: Thiol-containing compounds, such as the monothiol mucolytic agents described in this patent, can react with DTNB (5,5-Dithiobis(2-nitrobenzoic acid)) resulting in the cleavage of its single S—S bond. The DTNB assay serves a dual purpose in our analysis of monothiol compounds, as it can (1) be used to determine the “active concentration” of the mucolytic compounds (what amount of the compound in a reaction is able to cleave S—S bonds) and (2) to assess the rate that the compound can cleave S—S bonds. When cleaved, the resulting compound, NTB (2-nitro-5-thiobenzoate), is a colored product that is measured spectrophotometrically at an absorbance of 412 nm (Abs412). Using the molar extinction coefficient of NTB and measured maximum Abs412, the molar amount of DTNB that reacted with our mucolytic agents can be calculated. Monothiol mucolytic compounds react at a 1:1 stoichiometric ratio with DTNB (i.e. 1 mole of NTB is produced when 1 mole of DTNB is reacted with 1 mole of a monothiol reducing agent). To define the activity concentration of a compound, a final concentration of 22.5 μM mucolytic reducing agent was combined with an excess of DTNB (100 μM) in 1 mL 50 mM Tris-HCl buffer (pH 7.5). Maximum Abs412 was measured and then utilized to calculate the activity concentration. If observed activity concentrations differed from expected activity concentrations by more than 5%, the amount of the compound added to each reaction was accordingly adjusted to kinetically test the reducing rate in the next step. To determine rate of mucolytic reducing activity, 22.5 μM active reducing agent is combined with 45 μM DTNB in 1 mL 50 mM Tris-HCl buffer over a pH range (6.0-7.5). Abs412 is recorded in real time upon addition of the compound and rates were calculated using 2nd order kinetic parameters.

[3] = Parallel Artificial Membrane Permeability (PAMPA) Assay; assay type: in vitro ADME; details: FIG. 5; 5 hours, room temperature
Protocol: This assay measures the permeability of small molecules across an artificial phospholipid membrane to help predict in vivo drug permeability. First, 500 μM stock solutions were made up in PBS and tested by the DTNB assay (described above) to determine compound activity concentrations. Next, 300 μL of the 500 μM compound stock solution and 200 uL PBS were added per well to the donor and acceptor plates, respectively (BD Gentest™ Pre-Coated PAMPA Plate System). The acceptor plate was then placed on top of the donor plate and allowed to incubate at room temperature for 5 hours. After incubation, the donor and acceptor plates were separated. For each reaction, samples were taken from both the acceptor and donor plates and were combined with DTNB prior to reading spectrophotometrically (maximum Abs412). For prodrug samples, 1 μL of purified esterase (porcine liver esterase; Sigma) was added per well and the samples were incubated at room temperature for 5 minutes to allow for cleavage of the pro-drug cap prior to addition of DTNB. Using the concentrations of compound identified in both the donor and acceptor plates for each sample, a compound permeability parameter was calculated following equations outlined in the BD Gentest™ Pre-Coated PAMPA Plate System Manual.

[4] = target: T1, Muc5B (Homo sapiens, UniProt Q9HC84); assay: Mucin agarose gel western blot (saliva / mucus samples); assay type: biochemical; details: for reducing capacity relative to 76 (Muc5B): FIG. 3; for Muc5b reduction: FIG. 4
T1 construct: Various mucin-containing substrates (e.g. saliva, harvested HBE mucus, and disease sputum) treated with our monothiol mucolytic compounds; from tissue; host or cells: saliva; harvested HBE mucus; disease sputum
Protocol: (§1) Various mucin-containing substrates (e.g. saliva, harvested HBE mucus, and disease sputum) treated with our monothiol mucolytic compounds are quenched upon completion of the treatment period with a 10-fold excess of N-ethylmaleimide in order to alkylate any remaining active compound and to prevent further mucin reduction. A 10× concentrated sample loading buffer is diluted into each sample (1×TAE/5% glycerol/0.1% SDS/Bromophenol Blue). Samples ([…]) were analyzed by electrophoresis on 0.9% agarose gels using a buffer system consisting of 1×TAE/0.1% SDS. The agarose gel was soaked for 15 min in 4×SSC (0.6 M NaCl, 60 mM Tri-sodium citrate dehydrate) containing 10 mM DTT before transferring the samples from the gel onto a nitrocellulose membrane by vacuum blotter. Unreduced and reduced Muc5B were visualized on a LiCor Odyssey imaging detection system using a polyclonal antibody directed towards Muc5B.

[5] = tested on: mucus on primary human bronchial epithelial (HBE) cultures; assay: Mucus reduction on primary human bronchial epithelial (HBE) cultures, western blot; assay type: cell-based; details: FIG. 9; added to apical surface of HBE cultures
Protocol: as §1
Mucin reduction kinetics were assessed by western blot at the indicated times post-addition of mucolytic agents to the apical surface of HBE cultures.

[6] = Pro-Drug DTNB assay with or without esterase; assay type: biochemical
Protocol: The present invention provides a series of mucolytic pro-drugs (see R^6=other than H) that are activated by common enzymes that are present in the extracellular milieu (e.g., nucelotidases, phosphatases, and esterases). As a proof-of-concept, the reducing kinetics of the pro-drug compound 46 in the presence or absence of an activating esterase were tested.
This assay was designed to determine whether prodrug caps added on to our monothiol mucolytic compounds can be cleaved from the molecule. If so, the outcome would be an “active” compound that is able to reduce the S—S bond in DTNB. Similar to the activity concentration version of the DTNB assay described above, monothiol prodrugs were mixed at a final concentration of 22.5 μM with excess DTNB (100 μM final) in 1 mL 50 mM Tris-HCl buffer (pH 7.5) and maximum Abs412 was measured. In the absence of a purified hydrolytic enzyme (e.g. porcine liver esterase; Sigma), the amount of DTNB cleavage observed is an indicator for stability of the cap on the prodrug compound (i.e. if the prodrug remains intact in solution the Abs412=0). Next, 5 uL of esterase (bought as an ammonium sulfate suspension that is subsequently centrifuged to isolate the esterase and then dissolved in reaction buffer prior to assaying) is combined with excess DTNB (100 μM final) and 22.5 μM pro-drug in 1 mL 50 mM Tris-HCl buffer (pH 7.5). Cleavage of the prodrug cap can be visualized in real time via DTNB cleavage at Abs412 by the esterase-liberated monothiol molecule.

[7] = target: T1, Muc5B; assay: Muc5b reduction in COPD sputum, agarose gel western blot; assay type: biochemical; details: FIG. 8; spontaneously induced sputum from a patient with COPD
Protocol: as §1
An important aspect of mucolytic pro-drugs is that they must be activated in mucus on the lung surface.

[8] = Elimination of inhaled 14C-labelled NAC from the lungs in animal studies; assay type: in vivo; details: inhaled or intranasal, 14C-labled NAC, administered by inhalation, animal studies (unpublished observation)

| Compound | IL-8 secretion [1] | DTNB reduction rate ([2]; pH 6) | DTNB reduction rate ([2]; pH 6.5) | DTNB reduction rate ([2]; pH 7) | DTNB reduction rate ([2]; pH 7.5) | membrane permeability (PAMPA) [3] | Muc5b reduction relative to NAC ([4]; FIG. 2, 10 mM, 5-fold lower concentration than NAC) | reduction of salivary Muc5b compared to NAC ([4]; FIG. 2, equimolar concentrations relative to NAC (50 mM)) | duration of mucus reduction [5] | mucin reduction kinetics [5] | Reduction Without Esterase ([6]; 22.5 μM prodrug, 100 μM DTNB, pH 7.5, no enzyme) | Reduction With Esterase ([6]; 22.5 μM prodrug, 100 μM DTNB, pH 7.5, porcine liver esterase) | DTNB cleavage without esterase ([6]; FIG. 7 middle panel) | DTNB cleavage after addition of an esterase ([6]; FIG. 7 right-hand panel) | Muc5b reduction in sputum [7] | DTNB cleavage ([2]; FIG. 7 left panel) | reducing capacity relative to 76 (Muc5B) [4] | Muc5b reduction ([4]; 3 mM) | Muc5b reduction ([4]; 30 mM) | half-life [8] |
| --- | --- | --- | --- | --- | --- | --- | --- | --- | --- | --- | --- | --- | --- | --- | --- | --- | --- | --- | --- | --- |
| CC(=O)SCc1ccc(OCCN)cc1.Cl [Compound 76, S-4-(2-aminoethoxy)benzyl ethanethioate hydrochloride] | did not increase IL-8 secretion | 253.2 M⁻¹ s⁻¹ | 654.24 M⁻¹ s⁻¹ | 1499 M⁻¹ s⁻¹ | 4633.8 M⁻¹ s⁻¹ | membrane permeable | greater Muc5b reduction relative to NAC | significantly faster and more complete reduction |  |  |  |  |  |  |  |  |  |  |  |  |
| CC(=O)SCc1ccc(OCCN(C[C@H](O)[C@@H](O)[C@H](O)[C@H](O)CO)C[C@H](O)[C@@H](O)[C@H](O)[C@H](O)CO)cc1 [Compound 85, S-4-(2-(bis((2S,3R,4R,5R)-2,3,4,5,6-pentahydroxyhexyl)amino)ethoxy)benzyl Ethanethioate] |  |  |  |  |  | poor membrane permeability |  |  | potentially longer duration of action | slower reduction kinetics | No | Yes | does not cleave DTNB | metabolically converts 85 to 86, allowing it to hydrolyze DTNB | reduces the Muc5b, but with a delayed kinetic relative to 86 |  |  |  |  |  |
| OC[C@@H](O)[C@@H](O)[C@H](O)[C@@H](O)CN(CCOc1ccc(CS)cc1)C[C@H](O)[C@@H](O)[C@H](O)[C@H](O)CO [Compound 86, (2R,2′R,3R,3′R,4R,4′R,5S,5′S)-6,6′-((2-(4-(mercaptomethyl)phenoxy)ethyl)azanediyl)bis(hexane-1,2,3,4,5-pentaol)] | no change in IL-8 | 160 M⁻¹ s⁻¹ |  |  |  | poor membrane permeability |  |  | substantially recovered 24 hours after dosing | rapid reduction of the mucus |  |  |  |  | rapidly reduced Muc5b | rapidly cleaves DTNB | retain the reducing capacity of 76 | partial reduction | full Muc5b reduction |  |
| CC(=O)N[C@@H](CS)C(=O)O [NAC, N-acetyl cysteine, reference compound] |  | 10 M⁻¹ s⁻¹ | 26 M⁻¹ s⁻¹ | 69 M⁻¹ s⁻¹ | 230 M⁻¹ s⁻¹ |  |  |  |  |  |  |  |  |  |  |  |  |  | partial Muc5b reduction | ~20 min |
| NCCCC[C@@H](N)C(=O)NCCOc1ccc(CS)cc1 [Compound 69, (R)-2,6-diamino-N-(2-(4-(mercaptomethyl)phenoxy)ethyl)hexanamide] | did increase IL-8 secretion | 485.93 M⁻¹ s⁻¹ |  |  |  |  |  |  |  |  |  |  |  |  |  |  | retain the reducing capacity of 76 |  |  |  |
